This is an account of results in patent US20240316038A1, “APOL1 INHIBITORS AND METHODS OF USE” (Maze Therapeutics, Inc., priority 2021, published 2024).

Test [1] concerns the target T1, APOL1 G2 (Homo sapiens, UniProt O14791, DEL388-389).
T1 construct: expressed in transfected cells; host or cells: HEK293 T-REx clonal lines: HEK T-REx/GCaMP6f/APOL1 G2 K6.3 in A1, HEK293/T-REx APOL1 G2/clone #2 in A2
T1 sequence (O14791 with tags, fused parts or gaps DEL388-389): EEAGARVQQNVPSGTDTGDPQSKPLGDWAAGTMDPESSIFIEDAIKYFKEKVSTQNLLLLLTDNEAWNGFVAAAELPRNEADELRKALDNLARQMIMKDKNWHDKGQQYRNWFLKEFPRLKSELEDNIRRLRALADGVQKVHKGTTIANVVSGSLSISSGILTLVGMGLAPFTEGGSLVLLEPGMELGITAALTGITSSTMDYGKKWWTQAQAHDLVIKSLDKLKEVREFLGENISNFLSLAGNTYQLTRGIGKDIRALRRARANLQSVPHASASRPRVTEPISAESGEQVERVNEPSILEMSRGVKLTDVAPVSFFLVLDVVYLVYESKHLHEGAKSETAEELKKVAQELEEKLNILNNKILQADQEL
The experiment in a line: Rescue of HEK293 cell death caused by overexpression of APOL1 (CellTiter-Glo luminescence), HEK293/T-REx APOL1 G2/clone #2. The test is classed as cell-based. Conditions: reversal of cell death caused by overexpression of APOL1; geometric mean of at least 2 assay runs, † = single assay run (technical duplicate). The protocol:
A HEK293 clonal cell line overexpressing APOL1 G2 (HEK293/T-REx APOL1 G2/clone #2) was maintained in 1×DMEM-GlutaMax (Gibco, 10569-010) media with 10% tetracycline-free FBS (Takara Bio USA, 631101), 5 μg/mL Blasticidin (Gibco, A1113903), and 100 μg/mL Zeocin (Invitrogen, R25001) in T75 flasks. In preparation for the assay, this media was aspirated and 2 mL of prewarmed TrypLE Express (Gibco, 12605-010) was added to a flask to detach cells. The flask was then incubated (humidified, 37° C. with 5% CO2) for 3-5 minutes. Afterwards, 8 mL of prewarmed cell assay media (lx DMEM-GlutaMax media with 10% tetracycline-free FBS) was added to the trypsinized cells. The suspension was gently mixed, and cells were counted using a Countess Cell Counting Chamber (Invitrogen). The suspension was diluted using cell assay media to generate a working stock solution (166,667 cells/mL). Using a MultiDrop Combi (Thermo Electron Corp), 30 μL (final cell density=5,000 cells/well) of the working stock solution was dispensed into each well of white 384-well assay ready plates (Nunc™, 164610) containing 6 ng/mL doxycycline, to induce APOL1 expression, and compound. All compounds were plated in a duplicate 8-point dilution series that consisted of 3-fold stepwise dilutions (0.5% DMSO final). Assay plates were incubated (humidified, 37° C. with 5% CO2) for 17 hours. After the incubation, the plates were equilibrated at room temperature for 1 hour. Next, 15 μl of CellTiter-Glo® reagent (Promega, G7570) was added to each well using a MultiDrop Combi. Plates were placed on an orbital shaker (500 rpm) for 5 minutes to induce cell lysis and then incubated at room temperature for 10 minutes. Luminescence was measured on an Envision plate reader. Collaborative Drug Discovery software was utilized for graphing data. Plots were generated using a four parameter logistic curve fit.
Table B2 below provides the results from this experiment. Unless otherwise specified, EC50 values are reported as the geometric mean of at least 2 assay runs on separate days. Each run represents the average of a technical replicate, where each compound was assayed twice in the same plate. A superscript t symbol indicates a value from the average of a technical replicate from a single assay run, where each compound was assayed twice in the same plate. Compounds in Table B2 are referred to by the corresponding Compound Number in Table 1, which is also referred to in the synthetic examples. When one or more of the numbered compounds are identified by stereochemistry (for example, (R)- or (S)—), the specific stereoisomer for which data is provided in Table B2 may be identified by the elution order of such compound as described in the synthetic examples. To illustrate, Compound 2 is the first-eluting enantiomer of step 4 of Example 1 and Compound 3 is the second-eluting enantiomer of step 4 of Example 1. Further, by way of illustration, Compound 27 is the first-eluting enantiomeric mixture in step 4 of Example 7 and Compound 28 is the second-eluting enantiomeric mixture in step 4 of Example 7. Then, Compound 27 is separated into Compound 29 (the first-eluting enantiomer) and Compound 30 (the second-eluting enantiomer) in Example 8, and Compound 28 is separated into Compound 31 (the first-eluting enantiomer) and Compound 32 (the second-eluting enantiomer) in Example 8. Absolute stereochemistry of such compounds may be identified by methods known in the art.
Rescue EC50 values reported in Table B2 below represent the half-maximal effective concentration for reversal of cell death caused by overexpression of APOL1.

Test [2] addresses T1, APOL1 G2. The experiment in a line: APOL1 calcium transport inhibition assay (GCaMP6f calcium influx, FLIPR) in HEK T-REx/GCaMP6f/APOL1 G2 K6.3 cells. The test is classed as cell-based. The settings on record: inhibition of APOL1-mediated calcium influx; geometric mean of at least 2 assay runs, † = single assay run (technical duplicate). The protocol: A HEK293 clonal cell line was generated to stably express GCaMP6f, a genetically encoded calcium indicator, and inducibly express APOL1 G2 (HEK T-REx/GCaMP6f/APOL1 G2 K6.3). Cells were maintained in the following standard complete medium: DMEM with 4.5 g/L glucose and sodium pyruvate (BioWhittaker, Lonza, BE12-614F), supplemented with 10% FBS Performance Plus (Gibco, 16000044), 1% penicillin-streptomycin (BioWhittaker, DE17-602E), 2 mM ultraglutamine-1 (BioWhittaker cat. BE 17-605/U1), 50 μg/mL Zeocin (InvivoGen, ant-zn), 2.5 μg/mL Blasticidin (InvivoGen, ant-bl-5), and 25 μg/mL Hygromycin (InvivoGen, ant-hg). Standard propagation conditions consisted of plating 9×10^6, 4×10^6, 2×10^6 cells in a T225 flasks to be processed after 2, 3, or 4 days, respectively.
A source plate was generated containing 20 serially diluted compounds in DMSO (duplicate 8-point dose response). Next, 0.8 μL of compounds were transferred from the source plate to a destination plate prefilled with 79.2 μL of Ca^2+ free Tyrode's buffer (130 mM NaCl, 5 mM KCl, 1 mM MgCl2, 5 mM NaHCO3, 20 mM HEPES at pH 7.4). The destination plate was placed on a plate shaker (5 seconds at 2000 rpm) to mix. […] All transfer and mixing steps were conducted with an CyBi®-Well dispenser.
Cells were split by gently washing with DPBS (Euroclone, ECB4004L), followed by a 5-minute incubation (humidified, 37° C. with 5% CO2) with trypsin-EDTA solution (Euroclone, ECB3052D). Detached cells were diluted with standard complete medium without selective agents, counted, and plated in a 384 MTP microplate (GR4332CPL, Twin Helix) (10,000 cells/well in 25 μl/well) using a MATRIX WellMate dispenser. Plates were placed into a humidified incubator (37° C. with 5% CO2) overnight. The following day, 20 μL of doxycycline (Sigma, D9891) at 20 ng/mL in standard complete medium was added to cells with a CyBi @Drop dispenser to induce APOL1 G2 expression. After a 6-hour incubation (humidified, 37° C. with 5% CO2), cells were washed 3 times with Ca^2+ free Tyrode's Buffer (130 mM NaCl, 5 mM KCl, 1 mM MgCl2, 5 mM NaHCO3, 20 mM HEPES at pH 7.4) using a BIOTEK Microplate washer, such that 10 μL of buffer remained in each well after the final wash. Assay plates were then stored at room temperature for 10 minutes. Next, 10 μL of diluted compounds were transferred to the assay plate from the 2× compound plate using a CyBi®-Well dispenser. Compound incubation was then carried out at room temperature for 10 minutes. The assay plate was transferred to the […] and 20 μL of 10 mM Ca^2+ (final concentration=5 mM) Tyrode's buffer was injected.
Table B1 below summarizes the data from this experiment. Unless otherwise specified, AC50 and values are reported as the geometric mean of at least 2 assay runs on separate days. Each run represents the average of a technical replicate, where each compound was assayed twice in the same plate. A superscript † symbol indicates a value from the average of a technical replicate from a single assay run, where each compound was assayed twice in the same plate.
The AC50 values in Table B1 below reflect the compound's ability to prevent calcium influx by inhibiting APOL1. […] Compounds in Table B1 are referred to by the corresponding Compound Number in Table 1, which is also referred to in the synthetic examples. When one or more of the numbered compounds are identified by stereochemistry (for example, (R)- or (S)—), the specific stereoisomer for which data is provided in Table B1 may be identified by the elution order of such compound as described in the synthetic examples. To illustrate, Compound 2 is the first-eluting enantiomer of step 4 of Example 1 and Compound 3 is the second-eluting enantiomer of step 4 of Example 1. Further, by way of illustration, Compound 27 is the first-eluting enantiomeric mixture in step 4 of Example 7 and Compound 28 is the second-eluting enantiomeric mixture in step 4 of Example 7. […]

For the molecule `COC(CN1CCC[C@H](COc2ccc(S(C)(=O)=O)cc2)C1)c1cccc(Cl)c1` (single isomer, unassigned) [Compound 24, (S)-1-((S)-2-(3-chlorophenyl)-2-methoxyethyl)-3-((4-(methylsulfonyl)phenoxy)methyl)piperidine or (S)-1-((R)-2-(3-chlorophenyl)-2-methoxyethyl)-3-((4-(methylsulfonyl)phenoxy)methyl)piperidine], the 50% effective concentration (EC50) (in general, the concentration that produces a half-maximal response) on APOL1 G2 [1] came out at 334 nM. Moreover, the concentration at half-maximal activity (AC50) (usually the concentration giving half of the maximal activity seen) on APOL1 G2 [2] stood at 501 nM.

As to `COC(CN1CCC[C@@H](COc2ccc(S(C)(=O)=O)cc2)C1)c1cccc(Cl)c1` (single isomer, unassigned) [Compound 25, (R)-1-((R)-2-(3-chlorophenyl)-2-methoxyethyl)-3-((4-(methylsulfonyl)phenoxy)methyl)piperidine or (R)-1-((S)-2-(3-chlorophenyl)-2-methoxyethyl)-3-((4-(methylsulfonyl)phenoxy)methyl)piperidine], at APOL1 G2 [1], the concentration for a half-maximal effect (EC50) was 1010 nM. Also, the half-maximal activity concentration (AC50) on APOL1 G2 [2] was found to be 469 nM.

On to `COC(CN1CCC[C@@H](COc2ccc(S(C)(=O)=O)cc2)C1)c1cccc(Cl)c1` (single isomer, unassigned) [Compound 26, (R)-1-((S)-2-(3-chlorophenyl)-2-methoxyethyl)-3-((4-(methylsulfonyl)phenoxy)methyl)piperidine or (R)-1-((R)-2-(3-chlorophenyl)-2-methoxyethyl)-3-((4-(methylsulfonyl)phenoxy)methyl)piperidine], for which the concentration giving a half-maximal response (EC50) at APOL1 G2 [1] is 2240 nM. Moreover, the AC50 at APOL1 G2 [2] is 1540 nM.

In the case of `CS(=O)(=O)c1ccc(OCC2CN(CCc3cccc(Cl)c3)CCC2O)cc1` (single isomer, unassigned) [Compound 29, (3S,4R) or (3R,4R) or (3S,4S) or (3R,4S)-1-(3-chlorophenethyl)-3-((4-(methylsulfonyl)phenoxy)methyl)piperidin-4-ol], at APOL1 G2 [1], the half-maximal effective concentration (EC50) is greater than 12200 nM. Moreover, the half-maximal activity concentration (AC50) on APOL1 G2 [2] amounted to 1980 nM.

As to `CS(=O)(=O)c1ccc(OCC2CN(CCc3cccc(Cl)c3)CCC2O)cc1` (single isomer, unassigned) [Compound 30, (3R,4R) or (3S,4S) or (3R,4S) or (3S,4R)-1-(3-chlorophenethyl)-3-((4-(methylsulfonyl)phenoxy)methyl)piperidin-4-ol], the EC50 at APOL1 G2 [1] was 2410 nM. The concentration at half-maximal activity (AC50) on APOL1 G2 [2] turned out to be 864 nM.

Consider `CS(=O)(=O)c1ccc(OCC2CN(CCc3cccc(Cl)c3)CCC2O)cc1` (single isomer, unassigned) [Compound 31, (3R,4R) or (3S,4S) or (3R,4S) or (3S,4R)-1-(3-chlorophen-ethyl)-3-((4-(methylsulf-onyl)phenoxy)methyl) piperidin-4-ol], for which the 50% effective concentration (EC50) at APOL1 G2 [1] is greater than 7890 nM. Also, the AC50 at APOL1 G2 [2] was determined as 1020 nM.

As for `CS(=O)(=O)c1ccc(OCC2CN(CCc3cccc(Cl)c3)CCC2O)cc1` (single isomer, unassigned) [Compound 32, (3S,4S) or (3R,4S) or (3S,4R) or (3R,4R)-1-(3-chlorophen-ethyl)-3-((4-(methylsulf-onyl)phenoxy)methyl) piperidin-4-ol], on APOL1 G2 [1], the EC50 worked out at 5770 nM. At APOL1 G2 [2], the half-maximal activity concentration (AC50) came to 731 nM.

For `COC1CCN(CCc2cccc(Cl)c2)CC1COc1ccc(S(C)(=O)=O)cc1` (single isomer, unassigned) [Compound 33, rac-trans or cis-1-(3-chlorophenethyl)-4-methoxy-3-((4-(methylsulfonyl)phenoxy)methyl)piperidine], the EC50 on APOL1 G2 [1] is greater than 8670 nM. Also, on APOL1 G2 [2], the half-maximal activity concentration (AC50) was 10800 nM.

As to `COC1CCN(CCc2cccc(Cl)c2)CC1COc1ccc(S(C)(=O)=O)cc1` (single isomer, unassigned) [Compound 34, rac-cis or trans-1-(3-chlorophenethyl)-4-methoxy-3-((4-(methylsulfonyl)phenoxy)methyl)piperidine], at APOL1 G2 [1], the half-maximal effective concentration (EC50) worked out at 779 nM. In addition, at APOL1 G2 [2], the AC50 came out at 991 nM.
